Reference: patent US9260710B2, “Photocleavable linker” (City of Hope, priority 2012, dated 2016)

Key:
[1] = tested on: GFP-LC8 trap transfected Cos1/Cos7 cells; assay: Organelle dispersion and microtubule array in cells expressing the LC8 trap; assay type: cell-based
Source text: (§1) In vivo effect of Dynein LC and IC Traps. As tests for LC function, we evaluated the effects of the traps on early endosome, lysosome, and Golgi distribution, as well as mitotic progression. First, we fused green fluorescent protein (GFP) to the N-terminus of both FKBP-traps to identify transfected cells. Next, we transfected Cos1, Cos7, or HeLa cells with either trap or a GFP-FKBP control and labeled endosomes, lysosomes and Golgi with EEA1, LAMP2 and GM130 markers, respectively (FIGS. 12A-12C). […] The percentage of cells expressing the GFPLC8 or GFP-TcTex1 trap with dispersed endosomes was 14.7±1.5% and 13.3±1.5%, respectively, as compared to 11.7±3.5% and 10.3±3.5% for non-transfected cells and cells that expressed a GFP-FKBP control, respectively. […] After 8 h of treatment with AP20187, we observed greater than 50% dispersion of the three organelle types for each trap.
(§2) To ensure the AP20187 concentration was not limiting, we followed the LC8-trap-induced dispersion of lysosomes as a function of AP20187 concentration after 8 h. […] For the TcTex1-trap, we observed efficient endosome, lysosome and Golgi dispersion at AP20187 concentrations of 1 μM or greater.
Kinetic Analysis Separates Dynein Functions. A major purpose for developing these traps is to provide immediate inhibition of protein function and follow the cellular response from this perturbation to gain new insight. Thus, we monitored the fraction of cells with dispersed organelles as a function of time. After induction of dimerization by AP20187, effects on both early endosome and lysosome distribution were detectable at 10 min, and leveled off at ˜2 h (FIGS. 14A-14B). […] The most rapid effect was observed on lysosomes in cells expressing the LC8 trap. In striking contrast, Golgi dispersal using either trap occurred over a much longer time-course, requiring 8 h after induction of dimerization to reach similar levels of dispersion as for endosomes and lysosomes. Twenty-four hours after addition of AP20187, the percentage of cells with dispersed Golgi reached levels greater than 85%.

[2] = tested on: GFP IC trap transfected Cos1 cells; assay: Organelle dispersion and microtubule array in cells expressing the IC trap; assay type: cell-based
Description: FIGS. 13A-13B. FIGS. 13A-13B depict that induction of IC traps leads to Endosome (FIG. 13A) and Golgi apparatus (FIG. 13B) dispersion. Cos1 cells were transfected with the GFP IC trap (upper rights panels of FIGS. 13A and 13B) for 24 h and then treated with AP20187 for 1 h. The cells were stained with DAPI for nuclei (upper left panels of FIGS. 13 A and 13B) and EEA1 for endosomes (FIG. 13A, lower left panel)) or GM130 marker for Golgi bodies (FIG. 13B, lower left panel). Note the endosomes and Golgi apparatus are dispersed (marked “d”) within 10 min and 1 h, respectively. Cells not containing the IC trap all show compact endosomes and Golgi bodies (marked “c”). Scale bar is 5 μm.
As a test for effects on cytoplasmic dynein functions that are distinct from vesicular transport, we monitored mitotic behavior in cells expressing either the LC8- or TcTex1-traps. We observed little effect on either mitotic index or the fraction of mitotic cells at discrete mitotic stages with either trap (data not shown). […] Finally, similar studies were carried out using the IC trap. As before, we observed little or no change in the dispersion of endosomes and Golgi apparatus before AP20187 treatment. Induction of dimerization through the addition of AP20187 (1 μM) produced immediate changes in both organelles. After 4 h, 81+4% of cells contained dispersed endosomes and 68+3% of cells contained dispersed Golgi. […] The precise reason for this difference is not clear; however, currently, we attribute this to a change in the cytoskeleton, but this must still be verified. We are also in the process of measuring the effect of sequestering the dynein IC on mitotic behavior.
Microtubule architecture. Known methods of inhibiting cytoplasmic dynein, such as expression of dynactin polypeptides or RNAi against the dynein regulatory factors NudEL and ZW10, cause disorganization of the radial microtubule (MT) network in cultured mammalian cells 52-54. […] This is consistent with previous studies where overexpressing a dimeric form of the IC trap (e.g., CC1 of p150glued) also disrupts of the MT array).

[3] = tested on: TcTex1 and FKBP-IC peptide (TcTex1 trap); assay: Native PAGE and SEC of TcTex1 / TcTex-trap complex formation with AP20187; assay type: biochemical
Source text: To generate a TcTex1 trap, residues 107-125 of rat dynein IC2C, which specifically interact with TcTex1, were fused to the C-terminus of FKBP (FKBP-IC; FIG. 10D). […] However, addition of AP20187 to the admixture of FKBP-IC (L112A) peptide and TcTex1 produced a shift, but required a 16-fold higher concentration of AP20187 than the LC8/LC8-trap interaction (FIG. 10E, round 2). Based on this observation, we hypothesized that the sequence immediately preceding the TcTex1-binding region may interfere with the interaction, either through conformational restriction due to P109 or electrostatic repulsion due to K111. Therefore, we mutated the sequence PIK to GGS, to introduce flexible, hydrophilic residues (residues 109-111) (FIG. 10D).

[4] = tested on: non-transfected or GFPFKBP-expressing cells; assay: Organelle dispersion in cells without trap treated with AP20187; assay type: cell-based
Source text: as §1, §2

[5] = after induction of dimerization
[6] = Cos1 cells, after AP20187 addition
[7] = modified FKBP-IC trap, PIK to GGS (round 3)

`CCC(C(=O)N1CCCCC1C(=O)OC(CCc1ccc(OC)c(OC)c1)c1cccc(OCC(=O)NCC(CNC(=O)COc2cccc(C(CCc3ccc(OC)c(OC)c3)OC(=O)C3CCCCN3C(=O)C(CC)c3cc(OC)c(OC)c(OC)c3)c2)CN(C)C)c1)c1cc(OC)c(OC)c(OC)c1` (centres unmarked) [AP, AP20187] was tested, and the “dispersion of the three organelle types (early endosomes, lysosomes, Golgi)” value ([1]; 8 h of treatment, 100 μM AP20187) was “greater than 50%”, the “microtubule radial array / cytoskeleton changes” value ([1]; 8 h post-induction) was “No significant changes” and the “AP20187 concentration at which lysosome dispersion reached a plateau” value ([1]; after 8 h) was 100 nM. For the same molecule, the “time at which effects on early endosome and lysosome distribution leveled off” value [1, 5] was roughly 2 h, the “time at which effects on early endosome and lysosome distribution were detectable” value [1, 5] was 10 min and the “time required for Golgi dispersal to reach similar levels as endosomes and lysosomes” value [1, 5] was 8 h. For the same molecule, the “percentage of cells with dispersed Golgi” value ([1]; twenty-four hours after addition) was “greater than 85%”, the “cells containing dispersed Golgi” value ([2]; AP20187 1 μM, after 4 h) was 68+3% and the “cells containing dispersed endosomes” value ([2]; AP20187 1 μM, after 4 h) was 81+4%. The “microtubule (MT) radial array” value ([2]; AP20187-induced dimerization of the IC trap) was “significantly disrupted”, the “time within which Golgi apparatus is dispersed” value [2, 6] was no more than 1 h and the “time within which endosomes are dispersed” value [2, 6] was no more than 10 min. For the same molecule, the “fold higher concentration of AP20187 required for shift than the LC8/LC8-trap interaction” value ([3]; FKBP-IC (L112A) peptide and TcTex1 (round 2)) was 16 fold, the “concentration of AP20187 to fully sequester TcTex1 relative to that required for the LC8-trap” value [3, 7] was “approximately twice” and the “fold lower concentration of AP20187 to fully sequester TcTex1 than the FKBP-IC (L112A) peptide” value [3, 7] was roughly 8 fold. For the same molecule, the “effect on dispersion for each organelle” value ([4]; AP20187 for 8 h) was “did not affect the dispersion” and the “dispersal of organelles at any concentration tested” value ([4]; non-transfected cells, <2 μM) was “did not show dispersal”.
